Experimental data published in ChEMBL document CHEMBL3885861, “Open TG-GATES”.

Organism: Rattus norvegicus
Assay: Open TG-GATES - Regimen: Daily Repeat
Format: toxicity, organism-based, Sprague-Dawley
Set-up: regimen Daily Repeat, gender Male, age 6 weeks
Conditions: in vivo, po, 3 mg/kg, route gavage, dose level Low; for APTT / Bas / Eos / Fbg / Hb / Ht / Lym / MCH / MCHC / MCV / Mono / Neu / PT / Plat / RBC / Ret / WBC: tissue Blood; for KIDNEY_L / KIDNEY_R / KIDNEY_TOTAL: tissue Kidney; for LIVER: tissue Liver; for A/G / ALP / ALT / AST / BUN / CRE / Ca / Cl / DBIL / GLC / IP / K / LDH / Na / PL / RALB / TBIL / TC / TG / TP / gamma-GTP: tissue Plasma

SMILES: C=CCO [ALLYL ALCOHOL]
- TERMINAL_BW (72 h, time 3 day): 238.5 g
- APTT (72 h, time 3 day): 20.1 s
- Bas (72 h, time 3 day): 0%
- Eos (72 h, time 3 day): 1.2%
- Fbg (72 h, time 3 day): 228.4 mg/dL
- Hb (72 h, time 3 day): 13.8 g/dL
- Ht (72 h, time 3 day): 40%
- Lym (72 h, time 3 day): 77.8%
- MCH (72 h, time 3 day): 20.8 pg
- MCHC (72 h, time 3 day): 34.5%
- MCV (72 h, time 3 day): 60.4 fL
- Mono (72 h, time 3 day): 2.8%
- Neu (72 h, time 3 day): 17.8%
- PT (72 h, time 3 day): 11.6 s
- Plat (72 h, time 3 day): 135.9 x10_4/uL
- RBC (72 h, time 3 day): 662 x10_4/ul
- Ret (72 h, time 3 day): 5.2%
- WBC (72 h, time 3 day): 117.9 x10_2/uL
- KIDNEY_L (72 h, time 3 day): 1 g
- KIDNEY_R (72 h, time 3 day): 1 g
- KIDNEY_TOTAL (72 h, time 3 day): 2 g
- LIVER (72 h, time 3 day): 11.5 g
- A/G (72 h, time 3 day): 1.6
- ALP (72 h, time 3 day): 1089.8 IU/L
- ALT (72 h, time 3 day): 37.6 IU/L
- AST (72 h, time 3 day): 63.8 IU/L
- BUN (72 h, time 3 day): 16.2 mg/dL
- CRE (72 h, time 3 day): 0.5 mg/dL
- Ca (72 h, time 3 day): 10.8 mg/dL
- Cl (72 h, time 3 day): 103.2 meq/L
- DBIL (72 h, time 3 day): 0.076 mg/dL
- GLC (72 h, time 3 day): 225.8 mg/dL
- IP (72 h, time 3 day): 7.1 mg/dL
- K (72 h, time 3 day): 4.3 meq/L
- LDH (72 h, time 3 day): 204.6 IU/L
- Na (72 h, time 3 day): 140.4 meq/L
- PL (72 h, time 3 day): 153 mg/dL
- RALB (72 h, time 3 day): 3.4 g/dL
- TBIL (72 h, time 3 day): 0.1 mg/dL
- TC (72 h, time 3 day): 79.2 mg/dL
- TG (72 h, time 3 day): 91.6 mg/dL
- TP (72 h, time 3 day): 5.6 g/dL
- gamma-GTP (72 h, time 3 day): 0.6 IU/L
- TERMINAL_BW ([…], time 7 day): 274.1 g
- TERMINAL_BW ([…], time 14 day): 304.7 g
- TERMINAL_BW ([…], time 28 day): 380.5 g
- APTT ([…], time 7 day): 19.5 s
- Bas ([…], time 7 day): 0%
- Eos ([…], time 7 day): 1%
- Fbg ([…], time 7 day): 220.8 mg/dL
- Hb ([…], time 7 day): 13.7 g/dL
- Ht ([…], time 7 day): 40.3%
- Lym ([…], time 7 day): 80.6%
- MCH ([…], time 7 day): 20.5 pg
- MCHC ([…], time 7 day): 34%
- MCV ([…], time 7 day): 60.4 fL
- Mono ([…], time 7 day): 2.6%
- Neu ([…], time 7 day): 15.8%
- PT ([…], time 7 day): 11.9 s
- Plat ([…], time 7 day): 135 x10_4/uL
- RBC ([…], time 7 day): 667.2 x10_4/ul
- Ret ([…], time 7 day): 5.1%
- WBC ([…], time 7 day): 128.3 x10_2/uL
- APTT ([…], time 14 day): 20.1 s
- Bas ([…], time 14 day): 0%
- Eos ([…], time 14 day): 1.4%
- Fbg ([…], time 14 day): 225.8 mg/dL
- Hb ([…], time 14 day): 14.5 g/dL
- Ht ([…], time 14 day): 42%
- Lym ([…], time 14 day): 85.4%
- MCH ([…], time 14 day): 20.3 pg
- MCHC ([…], time 14 day): 34.6%
- MCV ([…], time 14 day): 58.7 fL
- Mono ([…], time 14 day): 2.4%
- Neu ([…], time 14 day): 10.6%
- PT ([…], time 14 day): 12 s
- Plat ([…], time 14 day): 113.9 x10_4/uL
- RBC ([…], time 14 day): 715.2 x10_4/ul
- Ret ([…], time 14 day): 3.5%
- WBC ([…], time 14 day): 110.3 x10_2/uL
- APTT ([…], time 28 day): 20.8 s
- Bas ([…], time 28 day): 0%
- Eos ([…], time 28 day): 1%
- Fbg ([…], time 28 day): 216.8 mg/dL
- Hb ([…], time 28 day): 15.2 g/dL
- Ht ([…], time 28 day): 43.8%
- Lym ([…], time 28 day): 80%
- MCH ([…], time 28 day): 19.3 pg
- MCHC ([…], time 28 day): 34.7%
- MCV ([…], time 28 day): 55.5 fL
- Mono ([…], time 28 day): 2.2%
- Neu ([…], time 28 day): 16%
- PT ([…], time 28 day): 12 s
- Plat ([…], time 28 day): 106.9 x10_4/uL
- RBC ([…], time 28 day): 787.6 x10_4/ul
- Ret ([…], time 28 day): 2.7%
- WBC ([…], time 28 day): 103.8 x10_2/uL
- KIDNEY_L ([…], time 7 day): 1.1 g
- KIDNEY_R ([…], time 7 day): 1.1 g
- KIDNEY_TOTAL ([…], time 7 day): 2.2 g
- KIDNEY_L ([…], time 14 day): 1.2 g
- KIDNEY_R ([…], time 14 day): 1.1 g
- KIDNEY_TOTAL ([…], time 14 day): 2.3 g
- KIDNEY_L ([…], time 28 day): 1.3 g
- KIDNEY_R ([…], time 28 day): 1.4 g
- KIDNEY_TOTAL ([…], time 28 day): 2.7 g
- LIVER ([…], time 7 day): 13 g
- LIVER ([…], time 14 day): 13 g
- LIVER ([…], time 28 day): 15.8 g
- A/G ([…], time 7 day): 1.6
- ALP ([…], time 7 day): 883.8 IU/L
- ALT ([…], time 7 day): 31.2 IU/L
- AST ([…], time 7 day): 61.4 IU/L
- BUN ([…], time 7 day): 16.2 mg/dL
- CRE ([…], time 7 day): 0.4 mg/dL
- Ca ([…], time 7 day): 10.9 mg/dL
- Cl ([…], time 7 day): 101.6 meq/L
- DBIL ([…], time 7 day): 0.088 mg/dL
- GLC ([…], time 7 day): 221.4 mg/dL
- IP ([…], time 7 day): 6.9 mg/dL
- K ([…], time 7 day): 4.1 meq/L
- LDH ([…], time 7 day): 192 IU/L
- Na ([…], time 7 day): 141 meq/L
- PL ([…], time 7 day): 145.6 mg/dL
- RALB ([…], time 7 day): 3.5 g/dL
- TBIL ([…], time 7 day): 0.1 mg/dL
- TC ([…], time 7 day): 70.4 mg/dL
- TG ([…], time 7 day): 120.6 mg/dL
- TP ([…], time 7 day): 5.8 g/dL
- gamma-GTP ([…], time 7 day): 0.8 IU/L
- A/G ([…], time 14 day): 1.5
- ALP ([…], time 14 day): 736.6 IU/L
- ALT ([…], time 14 day): 39 IU/L
- AST ([…], time 14 day): 60.2 IU/L
- BUN ([…], time 14 day): 16.2 mg/dL
- CRE ([…], time 14 day): 0.4 mg/dL
- Ca ([…], time 14 day): 10.6 mg/dL
- Cl ([…], time 14 day): 102.6 meq/L
- DBIL ([…], time 14 day): 0.07 mg/dL
- GLC ([…], time 14 day): 222.2 mg/dL
- IP ([…], time 14 day): 6.3 mg/dL
- K ([…], time 14 day): 3.6 meq/L
- LDH ([…], time 14 day): 214.8 IU/L
- Na ([…], time 14 day): 141.2 meq/L
- PL ([…], time 14 day): 143 mg/dL
- RALB ([…], time 14 day): 3.5 g/dL
- TBIL ([…], time 14 day): 0.1 mg/dL
- TC ([…], time 14 day): 74.8 mg/dL
- TG ([…], time 14 day): 86.6 mg/dL
- TP ([…], time 14 day): 5.9 g/dL
- gamma-GTP ([…], time 14 day): 1.2 IU/L
- A/G ([…], time 28 day): 1.2
- ALP ([…], time 28 day): 620 IU/L
- ALT ([…], time 28 day): 35.8 IU/L
- AST ([…], time 28 day): 57.8 IU/L
- BUN ([…], time 28 day): 15.2 mg/dL
- CRE ([…], time 28 day): 0.5 mg/dL
- Ca ([…], time 28 day): 10.4 mg/dL
- Cl ([…], time 28 day): 102.8 meq/L
- DBIL ([…], time 28 day): 0.076 mg/dL
- GLC ([…], time 28 day): 218.2 mg/dL
- IP ([…], time 28 day): 5.8 mg/dL
- K ([…], time 28 day): 3.7 meq/L
- LDH ([…], time 28 day): 210.8 IU/L
- Na ([…], time 28 day): 139.8 meq/L
- PL ([…], time 28 day): 138.6 mg/dL
- RALB ([…], time 28 day): 3.4 g/dL
- TBIL ([…], time 28 day): 0.1 mg/dL
- TC ([…], time 28 day): 65.8 mg/dL
- TG ([…], time 28 day): 114.4 mg/dL
- TP ([…], time 28 day): 6.2 g/dL
- gamma-GTP ([…], time 28 day): 0.6 IU/L
